Data on 29 compounds can be found in patent US7491819B1 (priority 2004, dated 2009).

SMILES strings stand for the structures.

The first assay deals with T1, HIV-integrase (Human immunodeficiency virus type 1 group M subtype B, UniProt P12497).
T1 construct: Recombinant integrase (0.26 ng) was incubated with the beads
Nature of the assay: HIV-Integrase Inhibition Activity (SPA bead strand-transfer assay). It is filed as biochemical. As to conditions: Table 1; read-out: Activity (HIV-integrase inhibition, IC50 class). The essentials:
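Strand-transfer read-out: CPM from P33-labelled target DNA (0.1 fmol) joined to bead-bound biotin substrate DNA (5 pmole), with EDTA stop at 10 mM final. Integrase (0.26 ng) prebound to streptavidin SPA beads 90 min, 37° C, and washed before adding inhibitor.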
In the case of `CC1(C)OCCn2c1nc(C(=O)NCc1ccc(F)cc1C#CCN1CCCCS1(=O)=O)c(O)c2=O` [Example 93, Pyrimido[2,1-c][1,4]oxazine-2-carboxamide, N-[[4-fluoro-2-[3-(tetrahydro-1,1-dioxido-2H-1,2-thiazin-2-yl)-1-propynyl]phenyl]methyl]-4,6,7,9-tetrahydro-3-hydroxy-9,9-dimethyl-4-oxo-], the IC50 lay in the range of 2 to 100 nM.

In the case of `CC1(C)OCCn2c1nc(C(=O)NCc1ccccc1-c1ccc(F)c(F)c1)c(O)c2=O` [Example 188, Pyrimido[2,1-c][1,4]oxazine-2-carboxamide, N-[(3′,4′-difluoro[1,1′-biphenyl]-2-yl)methyl]-4,6,7,9-tetrahydro-3-hydroxy-9,9-dimethyl-4-oxo-], the IC50 lay within 2 to 100 nM.

Take `CC1(C)OCCn2c1nc(C(=O)NCc1ccccc1-c1cccc(C(=O)N3CCCC3)c1)c(O)c2=O` [Example 172, Pyrimido[2,1-c][1,4]oxazine-2-carboxamide, 4,6,7,9-tetrahydro-3-hydroxy-9,9-dimethyl-4-oxo-N-[[3′-(1-pyrrolidinylcarbonyl)[1,1′-biphenyl]-2-yl]methyl]-]: the IC50 is 2 to 100 nM.

For the compound `COc1ccccc1CNC(=O)c1nc2n(c(=O)c1O)CCOC2(C)C` [Example 242, Pyrimido[2,1-c][1,4]oxazine-2-carboxamide, 4,6,7,9-tetrahydro-3-hydroxy-N-[(2-methoxyphenyl)methyl]-9,9-dimethyl-4-oxo-], the IC50 was in the range of 2 to 100 nM.

Take `CC1(C)OCCn2c1nc(C(=O)NCc1ccc(F)cc1-n1cncn1)c(O)c2=O` [Example 21, Pyrimido[2,1-c][1,4]oxazine-2-carboxamide, N-[[4-fluoro-2-(1H-1,2,4-triazol-1-yl)phenyl]methyl]-4,6,7,9-tetrahydro-3-hydroxy-9,9-dimethyl-4-oxo-]: the IC50 lay in the range of 2 to 100 nM.

On to `Cc1ccc(CNC(=O)c2nc3n(c(=O)c2O)CCOC3C)cc1C` (centres unmarked) [Example 8, Pyrimido[2,1-c][1,4]oxazine-2-carboxamide, N-[(3,4-dimethylphenyl)methyl]-4,6,7,9-tetrahydro-3-hydroxy-9-methyl-4-oxo-], for which the IC50 lay in the range of 2 to 100 nM.

In the case of `CC1(C)OCCn2c1nc(C(=O)NCc1ccc(Cl)cc1Cl)c(O)c2=O` [Example 271, Pyrimido[2,1-c][1,4]oxazine-2-carboxamide, N-[(2,4-dichlorophenyl)methyl]-4,6,7,9-tetrahydro-3-hydroxy-9,9-dimethyl-4-oxo-], the IC50 lay in the range of 2 to 100 nM.

As for `CON(Cc1ccc(F)cc1)C(=O)c1nc2n(c(=O)c1O)CCOC2(C)C` [Example 214, Pyrimido[2,1-c][1,4]oxazine-2-carboxamide, N-[(4-fluorophenyl)methyl]-4,6,7,9-tetrahydro-3-hydroxy-N-methoxy-9,9-dimethyl-4-oxo-], the IC50 is above 1000 nM.

As for `CC1(C)OCCn2c1nc(C(=O)NCc1ncc(F)cc1F)c(O)c2=O` [Example 28, Pyrimido[2,1-c][1,4]oxazine-2-carboxamide, N-[(3,5-difluoro-2-pyridinyl)methyl]-4,6,7,9-tetrahydro-3-hydroxy-9,9-dimethyl-4-oxo-], the IC50 is 2 to 100 nM.

As for `CSc1cc(F)ccc1CNC(=O)c1nc2n(c(=O)c1O)CCOC2(C)C` [Example 100, Pyrimido[2,1-c][1,4]oxazine-2-carboxamide, N-[[4-fluoro-2-(methylthio)phenyl]methyl]-4,6,7,9-tetrahydro-3-hydroxy-9,9-dimethyl-4-oxo-], the IC50 lay within 2 to 100 nM.

As for `Cc1[nH]c2ccc(CNC(=O)c3nc4n(c(=O)c3O)CCOC4(C)C)cc2c1C` [Example 144, Pyrimido[2,1-c][1,4]oxazine-2-carboxamide, N-[(2,3-dimethyl-1H-indol-5-yl)methyl]-4,6,7,9-tetrahydro-3-hydroxy-9,9-dimethyl-4-oxo-], the IC50 is 100 to 1000 nM.

As to `CCC1OCCn2c1nc(C(=O)NCc1ccc(F)c(Cl)c1)c(O)c2=O` (centres unmarked) [Example 14, Pyrimido[2,1-c][1,4]oxazine-2-carboxamide, N-[(3-chloro-4-fluorophenyl)methyl]-9-ethyl-4,6,7,9-tetrahydro-3-hydroxy-4-oxo-], the IC50 is 2 to 100 nM.

In the case of `CCC1(CC)OCCn2c1nc(C(=O)NCc1ccc(F)cc1-n1cncn1)c(O)c2=O` [Example 119, Pyrimido[2,1-c][1,4]oxazine-2-carboxamide, 9,9-diethyl-N-[[4-fluoro-2-(1H-1,2,4-triazol-1-yl)phenyl]methyl]-4,6,7,9-tetrahydro-3-hydroxy-4-oxo-], the IC50 fell in the range of 2 to 100 nM.

On to `CNC(=O)c1cc(F)ccc1CNC(=O)c1nc2n(c(=O)c1O)CCOC2C` (centres unmarked) [Example 9, Pyrimido[2,1-c][1,4]oxazine-2-carboxamide, N-[[4-fluoro-2-[(methylamino)carbonyl]phenyl]methyl]-4,6,7,9-tetrahydro-3-hydroxy-9-methyl-4-oxo-], for which the IC50 was in the range of 2 to 100 nM.

For the compound `Cc1cccc(CNC(=O)c2nc3n(c(=O)c2O)CCOC3(C)C)c1C` [Example 233, Pyrimido[2,1-c][1,4]oxazine-2-carboxamide, N-[(2,3-dimethylphenyl)methyl]-4,6,7,9-tetrahydro-3-hydroxy-9,9-dimethyl-4-oxo-], the IC50 lay within 2 to 100 nM.

As for `CC1(C)OCCn2c1nc(C(=O)NCc1ccc(F)cc1-n1nccn1)c(O)c2=O` [Example 57, Pyrimido[2,1-c][1,4]oxazine-2-carboxamide, N-[[4-fluoro-2-(2H-1,2,3-triazol-2-yl)phenyl]methyl]-4,6,7,9-tetrahydro-3-hydroxy-9,9-dimethyl-4-oxo-], the IC50 fell in the range of 2 to 100 nM.

In the case of `CC1(C)OCCn2c1nc(C(=O)NCc1ccccc1-c1cccc(C(N)=O)c1)c(O)c2=O` [Example 174, Pyrimido[2,1-c][1,4]oxazine-2-carboxamide, N-[[3′-(aminocarbonyl)[1,1′-biphenyl]-2-yl]methyl]-4,6,7,9-tetrahydro-3-hydroxy-9,9-dimethyl-4-oxo-], the IC50 is 2 to 100 nM.

As for `CN(C)C(=O)COc1cc(F)ccc1CNC(=O)c1nc2n(c(=O)c1O)CCOC2(C)C` [Example 98, Pyrimido[2,1-c][1,4]oxazine-2-carboxamide, N-[[2-[2-(dimethylamino)-2-oxoethoxy]-4-fluorophenyl]methyl]-4,6,7,9-tetrahydro-3-hydroxy-9,9-dimethyl-4-oxo-], the IC50 lay in the range of 2 to 100 nM.

For the compound `CC1(C)OCCCn2c1nc(C(=O)NCc1ccccc1N1CCCCS1(=O)=O)c(O)c2=O` [Example 206, 6H-pyrimido[2,1-c][1,4]oxazepine-2-carboxamide, 4,7,8,10-tetrahydro-3-hydroxy-10,10-dimethyl-4-oxo-N-[[2-(tetrahydro-1,1-dioxido-2H-1,2-thiazin-2-yl)phenyl]methyl]-], the IC50 was 2 to 100 nM.

Regarding `CC1(C)OCCn2c1nc(C(=O)NCc1cccc3c1OCCO3)c(O)c2=O` [Example 267, Pyrimido[2,1-c][1,4]oxazine-2-carboxamide, N-[(2,3-dihydro-1,4-benzodioxin-5-yl)methyl]-4,6,7,9-tetrahydro-3-hydroxy-9,9-dimethyl-4-oxo-], the IC50 lay in the range of 2 to 100 nM.

`CC1(C)OCCn2c1nc(C(=O)NCc1ccc(F)cc1-c1cccnc1)c(O)c2=O` [Example 75, Pyrimido[2,1-c][1,4]oxazine-2-carboxamide, N-[[4-fluoro-2-(3-pyridinyl)phenyl]methyl]-4,6,7,9-tetrahydro-3-hydroxy-9,9-dimethyl-4-oxo-]: the IC50 is 2 to 100 nM.

On to `CC1(C)OCCn2c1nc(C(=O)NCc1cccc(F)c1F)c(O)c2=O` [Example 238, Pyrimido[2,1-c][1,4]oxazine-2-carboxamide, N-[(2,3-difluorophenyl)methyl]-4,6,7,9-tetrahydro-3-hydroxy-9,9-dimethyl-4-oxo-], for which the IC50 is 2 to 100 nM.

In the case of `CC1(C)OCCn2c1nc(C(=O)NCc1cc(F)ccc1-n1cncn1)c(O)c2=O` [Example 54, Pyrimido[2,1-c][1,4]oxazine-2-carboxamide, N-[[5-fluoro-2-(1H-1,2,4-triazol-1-yl)phenyl]methyl]-4,6,7,9-tetrahydro-3-hydroxy-9,9-dimethyl-4-oxo-e], the IC50 is 2 to 100 nM.

`CCC1(CC)OCCn2c1nc(C(=O)NCc1ccc(F)c(C)c1)c(O)c2=O` [Example 43]: the IC50 was in the range of 2 to 100 nM.

`Cc1ccncc1-c1ccccc1CNC(=O)c1nc2n(c(=O)c1O)CCOC2(C)C` [Example 191, Pyrimido[2,1-c][1,4]oxazine-2-carboxamide, 4,6,7,9-tetrahydro-3-hydroxy-9,9-dimethyl-N-[[2-(4-methyl-3-pyridinyl)phenyl]methyl]-4-oxo-]: the IC50 fell in the range of 2 to 100 nM.

On to `CNS(=O)(=O)c1cc(F)ccc1CNC(=O)c1nc2n(c(=O)c1O)CCOC2(C)C` [Example 109, Pyrimido[2,1-c][1,4]oxazine-2-carboxamide, N-[[4-fluoro-2-[(methylamino)sulfonyl]phenyl]methyl]-4,6,7,9-tetrahydro-3-hydroxy-9,9-dimethyl-4-oxo-], for which the IC50 was in the range of 2 to 100 nM.

`CC1(C)OCCn2c1nc(C(=O)NCc1ccc(F)cc1-c1ccccc1)c(O)c2=O` [Example 74, Pyrimido[2,1-c][1,4]oxazine-2-carboxamide, N-[(5-fluoro[1,1′-biphenyl]-2-yl)methyl]-4,6,7,9-tetrahydro-3-hydroxy-9,9-dimethyl-4-oxo-]: the IC50 was 2 to 100 nM.

Take `Cc1cc(CNC(=O)c2nc3n(c(=O)c2O)CCCOC3(C)C)ccc1F` [Example 45, 6H-Pyrimido[2,1-c][1,4]oxazepine-2-carboxamide, N-[(4-fluoro-3-methylphenyl)methyl]-4,7,8,10-tetrahydro-3-hydroxy-10,10-dimethyl-4-oxo-]: the IC50 lay in the range of 2 to 100 nM.

The same assay, now with this note: Table 2a; read-out: HIV-Integrase Inhibition Activity.
With `CC1(C)OCCn2c1nc(C(=O)NCc1ccc(F)cc1SCCO)c(O)c2=O` [Example 313, Pyrimido[2,1-c][1,4]oxazine-2-carboxamide, N-[[4-fluoro-2-[(2-hydroxyethyl)thio]phenyl]methyl]-4,6,7,9-tetrahydro-3-hydroxy-9,9-dimethyl-4-oxo-], the IC50 lay within 2 to 100 nM.
